Experimental data from patent US20220000403A1, “NEUROT[…] DETECTION SYSTEM AND METHOD OF DETECTING A NEUROT[…]” (Ocumove ApS, priority 2018, published 2022).

Test system: subjects with an AHDH or ADD diagnosis
Test: Maximum FFT amplitude before/after startup of methylphenidate treatment (Example 7.3)
Assay type: in vivo, human
Settings: for decrease in eye activity (RC): no positive effect of the treatment
Procedure: A number of sample signals were recorded. Each sample was recorded over a period of 360 seconds. Only the middle 240 seconds are used, as the first 60 seconds and the last 60 second of the signal is discarded to avoid introducing artifacts related to the startup and termination of the test and the subject getting used to the eye sensors etc.
The signals were subjected to frequency analysis by FFT with 100 mHz solution.
Maximum amplitude of the frequency distribution (i.e. max FFT amplitude) is identified.
20 subjects with an AHDH or ADD diagnosis were evaluated with respect to effect of startup of methylphenidate treatment. A sample was recorded for each subject in accordance with example 7.2, and a maximum FFT amplitude was outputted from the frequency analysis arrangement (maximum FFT amplitude before, MAB). Thereafter, a startup dose of methylphenidate was prescribed for each subject. After ingestion, a further sample was recorded for each subject, and a maximum FFT amplitude was outputted from the frequency analysis arrangement (maximum FFT amplitude after, MAA).

COC(=O)C(c1ccccc1)C1CCCCN1 (stereo not shown) [methylphenidate]
RC: relative change in FFT amplitude (subject 152): −56 | MAA: Maximum FFT amplitude after (subject 152, MAB 4.58): 2.0 | Eff. M.: Evaluation of effect of methylphenidate (subject 155): No | RC: relative change in FFT amplitude (subject 155): 17 | MAA: Maximum FFT amplitude after (subject 155, MAB 3.6): 4.2 | decrease in eye activity (RC) (subject 177): below 10% | Eff. M.: Evaluation of effect of methylphenidate (subject 177 ADHD): No | RC: relative change in FFT amplitude (subject 177 ADHD): −7 | MAA: Maximum FFT amplitude after (subject 177 ADHD, MAB 26.7): 24.8 | Eff. M.: Evaluation of effect of methylphenidate (subject 179 ADHD): Good | RC: relative change in FFT amplitude (subject 179 ADHD): −65 | MAA: Maximum FFT amplitude after (subject 179 ADHD, MAB 8.9): 3.1 | Eff. M.: Evaluation of effect of methylphenidate (subject 184): Good | RC: relative change in FFT amplitude (subject 184): 65 | MAA: Maximum FFT amplitude after (subject 184, MAB 4.8): 7.9 | Eff. M.: Evaluation of effect of methylphenidate (subject 187 ADHD): Good | RC: relative change in FFT amplitude (subject 187 ADHD): 19 | MAA: Maximum FFT amplitude after (subject 187 ADHD, MAB 9.0): 10.7 | Eff. M.: Evaluation of effect of methylphenidate (subject 189): Good | RC: relative change in FFT amplitude (subject 189): −39 | MAA: Maximum FFT amplitude after (subject 189, MAB 9.0): 5.5 | Eff. M.: Evaluation of effect of methylphenidate (subject 192 ADHD): Good | RC: relative change in FFT amplitude (subject 192 ADHD): −66 | MAA: Maximum FFT amplitude after (subject 192 ADHD, MAB 21.4): 7.3 | Eff. M.: Evaluation of effect of methylphenidate (subject 197): Good | RC: relative change in FFT amplitude (subject 197): −56 | MAA: Maximum FFT amplitude after (subject 197, MAB 14.2): 6.2 | Eff. M.: Evaluation of effect of methylphenidate (subject 202 ADHD): No | RC: relative change in FFT amplitude (subject 202 ADHD): 33 | MAA: Maximum FFT amplitude after (subject 202 ADHD, MAB 34.4): 45.9 | Eff. M.: Evaluation of effect of methylphenidate (subject 204 ADHD): Good | RC: relative change in FFT amplitude (subject 204 ADHD): −66 | MAA: Maximum FFT amplitude after (subject 204 ADHD, MAB 6.2): 2.1 | Eff. M.: Evaluation of effect of methylphenidate (subject 210 ADHD): No | RC: relative change in FFT amplitude (subject 210 ADHD): 14 | MAA: Maximum FFT amplitude after (subject 210 ADHD, MAB 7.6): 8.7 | Eff. M.: Evaluation of effect of methylphenidate (subject 212): No | RC: relative change in FFT amplitude (subject 212): 27 | MAA: Maximum FFT amplitude after (subject 212, MAB 13.1): 16.7 | Eff. M.: Evaluation of effect of methylphenidate (subject 248 ADHD): No | RC: relative change in FFT amplitude (subject 248 ADHD): 14 | MAA: Maximum FFT amplitude after (subject 248 ADHD, MAB 15.9): 18.2 | Eff. M.: Evaluation of effect of methylphenidate (subject 250): Good | RC: relative change in FFT amplitude (subject 250): −24 | MAA: Maximum FFT amplitude after (subject 250, MAB 15.8): 12.0 | Eff. M.: Evaluation of effect of methylphenidate (subject 255): Good | RC: relative change in FFT amplitude (subject 255): −30 | MAA: Maximum FFT amplitude after (subject 255, MAB 22.9): 16.0 | Eff. M.: Evaluation of effect of methylphenidate (subject 258): No | RC: relative change in FFT amplitude (subject 258): −2 | MAA: Maximum FFT amplitude after (subject 258, MAB 11.2): 11.0 | decrease in eye activity (RC) (subject 258): below 10%
